Test results taken from patent publication US20260232674A1, “METHODS OF TREATING HIDRADENITIS SUPPURATIVA” (Alumis Inc., priority 2023, published 2026).

How the values were obtained:
IFN1 gene expression = test: IFN gene set expression (RNA-sequencing) in healthy volunteers, Compound A versus placebo, day 14; type: in vivo
Experimental: (§1) A study was conducted to assess IFN1 gene expression in healthy volunteers administered a regimen of Compound A. The data set consists of 48 subjects with transcriptome-wide RNA-sequencing data collected for each subject per time-point. For each subject, time points included a pre-dose at day 1, a pre-dose at day 14, and a 4 hour post-day 14 dose. A Wald test was used to assess the association of the various doses at post-dose day 14 versus placebo. To assess potentially off target effects, a secondary transcriptome-wide analysis was performed. Multiple test correction was completed using a Benjamini-Hochberg cutoff of 0.05 within the primary and secondary analyses separately.
For example FIG. 4 and FIG. 5 show dose-dependent median IFN gene expression levels over time for HERC5, IFI27, IFIT1, RSAD2. […] As shown in FIG. 6 and FIG. 7, SIGLEC1 was decreased after a 14-day regimen of treatment with Compound A.

[1] = IFN gene expression in healthy volunteers after 7 days 40 mg Compound A twice daily versus placebo; type: in vivo; conditions: gene CETP, 40 mg twice daily, versus placebo, healthy volunteers
Experimental: as §1, with “[…] […]” for “For each subject, time points included a pre-dose at day 1, a pre-dose at day 14, and a 4 hour post-day 14 dose. A Wald test was used to assess the association of the various doses at post-dose day 14 versus placebo.”

IFN gene expression = test: as above; type: in vivo
Experimental: as §1, with “[…] […]” for “For each subject, time points included a pre-dose at day 1, a pre-dose at day 14, and a 4 hour post-day 14 dose. A Wald test was used to assess the association of the various doses at post-dose day 14 versus placebo.”

[2] = test system: transcriptome-wide gene expression; test: Secondary transcriptome-wide analysis for potentially off target effects, day 14 4 hour post-treatment versus placebo; type: in vivo, healthy volunteers
Experimental: as §1

In the case of `[2H]C([2H])([2H])CC(=O)c1cnc(NC(=O)C2CC2)cc1Nc1cccc(-c2ncn(C([2H])([2H])[2H])n2)c1OC` [Compound A, N-(4-((2-Methoxy-3-(1-(methyl-d3)-1H-1,2,4-triazol-3-yl)phenyl)amino)-5-(propanoyl-3,3,3-d3)pyridin-2-yl)cyclopropanecarboxamide], the “association of Compound A with SIGLEC1 gene expression (Wald test)” value (IFN1 gene expression; after 14 days of treatment versus placebo, Table 2) is reported as “significant association”, the “median IFN gene expression levels for HERC5, IFI27, IFIT1, RSAD2” value (IFN1 gene expression; after 14 days, versus placebo, FIG. 4 and FIG. 5, healthy volunteers) is reported as “substantial decrease” and the “median gene expression levels for SIGLEC1” value (IFN1 gene expression; after a 14-day regimen, versus placebo, FIG. 6 and FIG. 7, healthy volunteers) is reported as “decreased”. For the same molecule, the “log2FoldChange CXCL10” value (IFN1 gene expression; gene CXCL10, after 14 days of treatment versus placebo, healthy volunteers) was −1.589, the “log2FoldChange EPSTI1” value (IFN1 gene expression; gene EPSTI1, after 14 days of treatment versus placebo, healthy volunteers) was −0.2266 and the “log2FoldChange IFI27” value (IFN1 gene expression; gene IFI27, after 14 days of treatment versus placebo, healthy volunteers) was −1.082. The “log2FoldChange IFI44” value (IFN1 gene expression; gene IFI44, after 14 days of treatment versus placebo, healthy volunteers) was −0.3773, the “log2FoldChange IFI44L” value (IFN1 gene expression; gene IFI44L, after 14 days of treatment versus placebo, healthy volunteers) was −1.043 and the “log2FoldChange IFIT1” value (IFN1 gene expression; gene IFIT1, after 14 days of treatment versus placebo, healthy volunteers) was −1.676. For the same molecule, the “log2FoldChange ISG15” value (IFN1 gene expression; gene ISG15, after 14 days of treatment versus placebo, healthy volunteers) was −0.8721, the “log2FoldChange ISG20” value (IFN1 gene expression; gene ISG20, after 14 days of treatment versus placebo, healthy volunteers) was 0.08851 and the “log2FoldChange MX1” value (IFN1 gene expression; gene MX1, after 14 days of treatment versus placebo, healthy volunteers) was −1.438. The “log2FoldChange OAS1” value (IFN1 gene expression; gene OAS1, after 14 days of treatment versus placebo, healthy volunteers) was −0.1127, the “log2FoldChange OAS2” value (IFN1 gene expression; gene OAS2, after 14 days of treatment versus placebo, healthy volunteers) was −0.008935 and the “log2FoldChange OAS3” value (IFN1 gene expression; gene OAS3, after 14 days of treatment versus placebo, healthy volunteers) was −0.7134. The “log2FoldChange RSAD2” value (IFN1 gene expression; gene RSAD2, after 14 days of treatment versus placebo, healthy volunteers) was −0.4713, the “log2FoldChange SIGLEC1” value (IFN1 gene expression; gene SIGLEC1, after 14 days of treatment versus placebo, healthy volunteers) was −3.579 and the “log2FoldChange SPATS2L” value (IFN1 gene expression; gene SPATS2L, after 14 days of treatment versus placebo, healthy volunteers) was −0.5117. For the same molecule, the “log2FoldChange CETP” value [1] was 1.503, the “rank of SIGLEC1 among differentially expressed genes, treated versus placebo” value (IFN gene expression; 40 mg twice daily, Table 3) was “top differentially expressed gene” and the “log2FoldChange CHRM3” value (IFN gene expression; gene CHRM3, 40 mg twice daily, versus placebo, healthy volunteers) was −1.521. The “log2FoldChange HJURP” value (IFN gene expression; gene HJURP, 40 mg twice daily, versus placebo, healthy volunteers) was 1.007, the “log2FoldChange OSM” value (IFN gene expression; gene OSM, 40 mg twice daily, versus placebo, healthy volunteers) was 1.157 and the “log2FoldChange SIGLEC1” value (IFN gene expression; gene SIGLEC1, 40 mg twice daily, versus placebo, healthy volunteers) was −3.626. The “log2FoldChange SOCS3” value (IFN gene expression; gene SOCS3, 40 mg twice daily, versus placebo, healthy volunteers) was 1.421, the “log2FoldChange SYN2” value (IFN gene expression; gene SYN2, 40 mg twice daily, versus placebo, healthy volunteers) was 2.239 and the “log2FoldChange CDNF” value ([2]; gene CDNF, secondary analysis) was 1.185. The “log2FoldChange ENSG00000288643” value ([2]; gene ENSG00000288643, secondary analysis) was −1.541, the “log2FoldChange IFI6” value ([2]; gene IFI6, secondary analysis) was −1.206 and the “log2FoldChange IFIT1” value ([2]; gene IFIT1, secondary analysis) was −1.676. The “log2FoldChange JPH4” value ([2]; gene JPH4, secondary analysis) was −1.043, the “log2FoldChange LRP1” value ([2]; gene LRP1, secondary analysis) was −1.314 and the “log2FoldChange LRRC75B” value ([2]; gene LRRC75B, secondary analysis) was −1.205. The “log2FoldChange MX1” value ([2]; gene MX1, secondary analysis) was −1.438, the “log2FoldChange SIGLEC1” value ([2]; gene SIGLEC1, secondary analysis) was −3.579 and the “off target associations after multiple test corrections” value ([2]; transcriptome-wide, Table 4) was “no significant off target associations”.
